From patent US20110143960A1, “3D-MODELS FOR HIGH-THROUGHPUT SCREENING DRUG DISCOVERY AND DEVELOPMENT” (priority 2009, published 2011)
pIC50: −log10 of the molar value. Entries after “also recorded” stand apart in the source; their conditions may differ. Where two headings read alike, the source gives them in different places. Values belong to the compound of their own block, whether it stands above or below them.

What was measured:
[1] = test system: VimPro-Fluc-MDA-MB-231 spheroids; assay: Live 3D-spheroid vimentin expression assay (VimPro-Fluc, DMNPE-caged luciferin); format: cell-based; conditions: read-out: IC50 vimentin expression, dose response
Procedure: Uniform single-spheroids of MDA-MB-231 and VimPro-Fluc-MDA-MB-231 breast carcinoma cells were cultured in 96-well flat bottom plates coated with 50 μL of a 1.5% agarose (weight/volume) solution in serum free RPMI-1640 (no phenol red) medium (freshly autoclaved at 121° C. for 15 min). During the coating process the agarose/RPMI-1640 solution was maintained at >60° C. followed by cooling and setting at room temperature for 40 min. Cells were plated at a density of 10,000 cells/well in 50 μL of RPMI-1640 (10% FBS, no phenol red) and centrifuged at 1,000 rpm for 15 min to induce cell aggregation. […]
VimPro-Fluc-MDA-MB-231 spheroids were cultured in 96-well optical bottom white plates and treated as described above. On day 8, after 72 h treatment with control EMT modulators, live spheroid vimentin expression was measured by adding 10 μL (final 12.5 μM) of DMNPE-caged luciferin to each well and incubating at 37° C., 5% CO2 for 2 h.
Uniform single spheroids were cultured in 96-well optical bottom white plates as described above and treated on day 5. […] After 72 h, vimentin expression was measured by adding 10 μL (final 12.5 μM) of DMNPE-caged luciferin to each well and incubated for 2 h (37° C., 5% CO2). Luminescence was recorded with an integration time of 1 second/well (FIG. 9A-D).

MDA-MB-231 spheroids [2] = assay: Spheroid viability, APH assay multiplexed after vimentin readout; format: cell-based; conditions: for spheroid death (control of APH assay): 10% Triton X-100, 2 h prior to APH analysis
Procedure: Cell Viability To support the primary assay hit validation, two cell viability assays have been developed: the acid phosphatase assay (APH) and the cell-titer-glow (Promega®). Both assays give robust reproducible results in both 2D and 3D cell culture. We can also multiplex these assays using live VimPro-Fluc stable 3D-spheroids (FIG. 5). On day 8, vimentin expression was measured (luminescence as RLU/s), using a live cell permeable luciferin reagent, followed by multiplexing with the APH assay (OD405). […] Thus, downregulation of VimPro-Fluc activity by the control modulators is not due to spheroid death.
Uniform single spheroids were cultured in 96-well optical bottom white plates as described above and treated on day 5. To avoid edge effects the outer wells were unused and filled with sterilized water. 15 μL of controls and marine natural products were added to each well at final concentrations described above. After 72 h, vimentin expression was measured by adding 10 μL (final 12.5 μM) of DMNPE-caged luciferin to each well and incubated for 2 h (37° C., 5% CO2). Luminescence was recorded with an integration time of 1 second/well (FIG. 9A-D). Directly following the primary assay measuring vimentin expression, spheroid viability was multiplexed using the APH assay. Hits were confirmed using the cell invasion assay (FIG. 9E).

MDA-MB-231 spheroids [3] = assay: Modified Boyden chamber cell invasion assay of cells dissociated from spheroids; format: cell-based; conditions: control modulators, 72 h treatment, 24 h invasion, FIG. 6
Procedure: Spheroids were treated as in the primary assay. Following treatment, each sample group was disassociated into single cell suspensions and seeded into invasion chambers followed by a 24 h incubation period. VimPro-Fluc-MDA-MB-231 spheroids were treated with control EMT modulators as described using 15 spheroids per sample group. The spheroids for each sample group were pooled into 1.5 ml, micro tubes and collected by centrifugation at 10,000 rpm for 10 min at room temperature.
Each sample group was then treated with 200 μL of spheroid dissociation solution (0.25% trypsin-EDTA) and incubated at 37° C. for 30 min. Single cell suspensions of each group in RPMI-1640 medium containing 0.1% BSA were seeded at 35,000 cells/chamber (50 μL) into the top chambers of a 96-well invasion plate (BD Biosciences; Bedford, Mass.) previously coated with 50 μL of […]™ (40 μg/mL protein in RPMI-1640 medium). Chemoattractant (10%
FBS in RPMI-1640 medium, 150 μL) was added to each bottom chamber and the plate was incubated (37° C., 5% CO2) for 24 h. Following incubation the insert was removed and the medium aspirated from both top and bottom chambers. […] Each side of the membrane insert was washed 2× by adding 200 μL PBS-CMF (Ca/Mg free) to the bottom chamber, replacing the insert and adding 50 μL PBS-CMF to the top chamber. The PBS-CMF was removed and the invading cells were fixed with 200 μL of 4% paraformaldahyde in the bottom chambers at 37° C. for 15 min. The insert was washed 2× with PBS-CMF as described above. The invading cells were subsequently stained with 200 μL of DAPI (3 μg/mL) in PBS-CMF for 30 min at room temperature and washed 4×, as described above, in 15 min intervals. Invading cells were quantified using five random fields per filter insert in triplicate at 20× magnification using a fluorescent microscope equipped with metamorph image analysis and quantification software (Molecular Devices; Downingtown, Pa.).

[4] = test system: VimPro-Fluc-PMC42-LA cells; format: cell-based; conditions: VimPro-Fluc-PMC42-LA monolayer, 10 ng/mL EGF, 72 h
Procedure: (§1) A 2D-screen was conducted with small molecule antitumor agents, growth factors or antibodies (FIG. 2B). All cells were cultured in 100 mm tissue culture dishes in RPMI-1640 supplemented with 10% FBS and maintained in a 5% CO2 incubator at 37° C. VimPro-Fluc-MDA-MB-231 and VimPro-Fluc-PMC42-LA were seeded at 5,000 cells/well into 96-well white plates and incubated overnight for 16 h. VimPro-Fluc-PMC42-LA and VimPro-Fluc-MDA-MB-231 cells were treated for 72 h. The treatment medium was replaced with 50 μL fresh medium, then 50 μL of One-Glo Luciferase reagent and incubated at room temperature for 10 min. Luminescence was recorded with an integration time of 1 sec/well using a luminescence microplate reader.

[5] = test system: VimPro-Fluc-MDA-MB-231 cells; format: cell-based; conditions: VimPro-Fluc-MDA-MB-231 monolayer, 72 h
Procedure: as §1

MDA-MB-231 cells = test system: MDA-MB-231 cells
Procedure: (§2) Cell lines were cultured as monolayers in 96-well microplates and treated with U0126, the specific inhibitor of mitogen-activated protein kinase kinase (MEK1).

[6] = test system: EGF-treated PMC42-LA cells
Procedure: as §2

[7] = test system: vimentin in MDA-MB-231 spheroids; assay: Immunofluorescent vimentin staining of whole and sectioned spheroids (confocal); format: cell-based; conditions: whole spheroid, outer surface / peripheral layer; U0126 10 μM 72 h
Procedure: Confocal 3D imaging emphasizes a surface edge of MDA-MB-231 spheroids untreated or treated with (10 μM) U0126 for 72 hours.
Spheroids were fixed with 50 μL of 3.7% formaldehyde for 10 min at room temperature. They were then washed once with PBS and 50 μL of 0.2% Triton X-100 in PBS (v/v) were added for 10 min at room temperature to permeate cells. Next they were blocked with 50 μL of cell culture medium (10% FBS) for 1 h at room temperature. Blocking medium was then aspirated and sphroids were treated with mouse anti-vimentin at 1:100 in TBST containing 20% cell culture medium (v/v) with shaking at 4° C. overnight. They were then washed (3×TBST) and stained with FITC green fluorescent conjugated goat anti-mouse secondary antibody at 1:1,000 and with DAPI (4′,6-diamidino-2-phenylindole) at 1:1,000 in TBST containing 20% cell culture medium (v/v) for 1 h at room temperature and washed with TBST 4×. After fixing with formaldehyde, some spheroids were sectioned using a Leica CM 1950 cryostat (Leica Microsystems; Germany) with thickness of 10 μm. Spheroid sections were washed with PBS and stained as described above. Spheroid sections on slides were covered with mounting medium and cover slips. Imaging of whole spheroids was done with an UltraVIEW® VoX 3D confocal microscope (Perkin Elmer) using a 20× objective. Spheroid sections were imaged using a Nikon D-Eclipse Cl confocal microscope system (Nikon Instruments Inc; Melville, N.Y.).
Vimentin expression in VimPro-Fluc-MDA-MB-231 spheroids was further assessed by immunofluorescent staining of whole spheroids treated with U0126.

pIC50 ([1]; VimPro-Fluc spheroids, FIG. 8B): 6.60
Compound: CNC(=O)c1ccccc1Sc1ccc2c(/C=C/c3ccccn3)n[nH]c2c1 [Axitinib]

Compound: COc1c(OC)c2c(c(CCN(C)C)c1SC)Sc1c(CCN(C)C)c(SC)c(OC)c(OC)c1S2 [lissoclinotoxin E]
spheroid viability vs untreated spheroids on day 5 (MDA-MB-231 spheroids [2]; marine natural product hits, 10 μM, 72 h, APH assay): exception; also recorded: statistically significant decrease in spheroid viability

Compound: C[C@@H](Oc1cc(-c2cnn(C3CCNCC3)c2)cnc1N)c1c(Cl)ccc(F)c1Cl [PF2341066, PF-2341066]
inhibition of invasive potential vs untreated spheroids (MDA-MB-231 spheroids [3]): about 90% | invasive potential of MDA-MB-231 spheroids (in words) (MDA-MB-231 spheroids [3]): significant inhibition

Compound: COc1cc2ncnc(Nc3cccc(Cl)c3)c2cc1OC [AG1478]
EGF-induced EMT (vimentin upregulation) [4]: significantly inhibited | vimentin expression [5]: no statistically significant effect

Compound: Triton X-100
spheroid death (control of APH assay) (MDA-MB-231 spheroids [2]): significantly induces spheroid death | spheroid death (control of APH assay) (MDA-MB-231 spheroids [2]; listed as Triton-X-100): significantly induced spheroid death

Compound: CO[C@@H]1[C@H](N(C)C(=O)c2ccccc2)C[C@H]2O[C@]1(C)n1c3ccccc3c3c4c(c5c6ccccc6n2c5c31)C(=O)NC4 [PKC412]
invasive potential of MDA-MB-231 spheroids (in words) (MDA-MB-231 spheroids [3]): significant inhibition

Compound: N#CC(=C(/N)Sc1ccccc1N)/C(C#N)=C(\N)Sc1ccccc1N [U0126]
invasive potential (MDA-MB-231 cells): significantly diminished | invasive potential [6]: significantly diminished | EGF-induced EMT (vimentin upregulation) [4]: significantly inhibited | vimentin expression [5]: significant downregulation of vimentin expression | inhibition of invasive potential vs untreated spheroids (MDA-MB-231 spheroids [3]): about 90% | invasive potential of MDA-MB-231 spheroids (in words) (MDA-MB-231 spheroids [3]): significant inhibition | pIC50 [1]: 5.60 | vimentin protein expression by immunofluorescence [7]: overall vimentin downregulation; also recorded: Significant downregulation of vimentin protein expression; also recorded: repression of Vimentin expression
